Results from the supplement of paper PMC6045584.
± gives the standard deviation of the averaged measurements.

How the values were obtained:
FORETINIB = compound: COc1cc2c(Oc3ccc(NC(=O)C4(C(=O)Nc5ccc(F)cc5)CC4)cc3F)ccnc2cc1OCCCN1CCOCC1 [FORETINIB]; assay: surviving fraction relative to DMSO-only wells; higher = less growth inhibition; conditions: exposure time: 5 days
Procedure, shortened: (§1)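 Viability values are CellTiter-Glo luminescence readings, given as surviving fraction against the median of DMSO-only wells. The readings were taken after 10 minutes at room temperature, following five days of continuous exposure to inhibitors at 0.5, 1, 5, 10, 50, 100, 500 and 1000 nM that began 24 hours after log-phase tumour cell lines were seeded at 250–500 cells per well in 384-well plates. Every line was screened three times and kept only if replicate Pearson r >0.7 and median Z' >0.3.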

DASATINIB = compound: Cc1nc(Nc2ncc(C(=O)Nc3c(C)cccc3Cl)s2)cc(N2CCN(CCO)CC2)n1 [DASATINIB]; assay: as above; conditions: exposure time: 5 days
Procedure, shortened: as §1

Test System	surviving fraction (FORETINIB; 0.5 nM)	surviving fraction (FORETINIB; 1 nM)	surviving fraction (FORETINIB; 5 nM)	surviving fraction (FORETINIB; 10 nM)	surviving fraction (FORETINIB; 50 nM)	surviving fraction (FORETINIB; 100 nM)	surviving fraction (FORETINIB; 500 nM)	surviving fraction (FORETINIB; 1000 nM)	surviving fraction (DASATINIB; 0.5 nM)	surviving fraction (DASATINIB; 1 nM)	surviving fraction (DASATINIB; 5 nM)	surviving fraction (DASATINIB; 10 nM)	surviving fraction (DASATINIB; 50 nM)	surviving fraction (DASATINIB; 100 nM)	surviving fraction (DASATINIB; 500 nM)	surviving fraction (DASATINIB; 1000 nM)
SUM149 BREAST	0.95 ± 0.004	0.912 ± 0.011	1.04 ± 0.17	0.9 ± 0.0082	0.831 ± 0.036	0.969 ± 0.13	0.353 ± 0.05	0.409 ± 0.021	0.774 ± 0.058	0.817 ± 0.082	0.607 ± 0.043	0.563 ± 0.036	0.292 ± 0.018	0.252 ± 0.011	0.177 ± 0.02	0.174 ± 0.018
SUM149.B1*.S BREAST	1.13 ± 0.068	1.19 ± 0.078	1.12 ± 0.022	1.11 ± 0.021	1.11 ± 0.059	1.09 ± 0.054	0.855 ± 0.033	0.515 ± 0.067	0.905 ± 0.034	0.879 ± 0.036	0.811 ± 0.024	0.75 ± 0.047	0.5 ± 0.018	0.358 ± 0.0082	0.332 ± 0.0043	0.353 ± 0.032
SUM159 BREAST	1.13 ± 0.038	1.12 ± 0.046	1.11 ± 0.038	1.09 ± 0.028	1.071 ± 0.0061	1.06 ± 0.018	1.01 ± 0.018	0.566 ± 0.037	0.948 ± 0.026	0.981 ± 0.011	0.955 ± 0.015	0.921 ± 0.022	0.907 ± 0.011	0.778 ± 0.048	0.59 ± 0.035	0.606 ± 0.055
SYO1 SYNOVIAL	0.989 ± 0.038	0.971 ± 0.05	0.929 ± 0.026	0.914 ± 0.027	0.821 ± 0.013	0.749 ± 0.028	0.25 ± 0.0099	0.189 ± 0.026	0.777 ± 0.024	0.758 ± 0.041	0.651 ± 0.03	0.566 ± 0.07	0.415 ± 0.02	0.383 ± 0.026	0.351 ± 0.011	0.34 ± 0.017
T47D BREAST	1.02 ± 0.032	1.08 ± 0.056	1.08 ± 0.023	1.08 ± 0.029	1.04 ± 0.025	1.08 ± 0.04	0.897 ± 0.064	0.898 ± 0.028	0.937 ± 0.032	0.903 ± 0.043	0.903 ± 0.057	0.937 ± 0.042	1 ± 0.035	0.975 ± 0.042	0.964 ± 0.048	0.982 ± 0.061
U2OS BONE	1.03 ± 0.018	1 ± 0.021	1.04 ± 0.034	1.01 ± 0.037	1.03 ± 0.059	0.958 ± 0.03	0.558 ± 0.028	0.344 ± 0.024	0.951 ± 0.031	0.953 ± 0.022	0.957 ± 0.059	0.865 ± 0.051	0.8 ± 0.035	0.692 ± 0.021	0.514 ± 0.024	0.503 ± 0.006
VCAP PROSTATE	0.975 ± 0.059	0.96 ± 0.13	1.12 ± 0.094	1.03 ± 0.082	1.11 ± 0.1	1.08 ± 0.2	0.547 ± 0.09	0.4 ± 0.044	0.856 ± 0.048	0.89 ± 0.014	0.923 ± 0.026	0.943 ± 0.091	1.01 ± 0.12	1.02 ± 0.11	1.02 ± 0.061	0.932 ± 0.062
VP229 BREAST	1.31 ± 0.085	1.09 ± 0.11	1.13 ± 0.14	1.07 ± 0.1	1.14 ± 0.11	1.05 ± 0.15	0.808 ± 0.14	0.616 ± 0.15	0.813 ± 0.044	0.855 ± 0.081	0.708 ± 0.031	0.619 ± 0.027	0.467 ± 0.032	0.484 ± 0.0085	0.45 ± 0.031	0.484 ± 0.018
YAMATO SYNOVIAL	0.998 ± 0.072	1.16 ± 0.098	1 ± 0.12	1.02 ± 0.078	0.585 ± 0.025	0.369 ± 0.035	0.295 ± 0.017	0.272 ± 0.018	0.822 ± 0.18	0.729 ± 0.097	0.836 ± 0.19	0.771 ± 0.2	0.848 ± 0.13	0.753 ± 0.11	0.63 ± 0.039	0.677 ± 0.074
ZR751 BREAST	1.04 ± 0.21	1.12 ± 0.12	0.969 ± 0.1	1.06 ± 0.16	0.963 ± 0.06	1.07 ± 0.062	0.902 ± 0.062	0.783 ± 0.1	0.934 ± 0.066	0.965 ± 0.23	0.851 ± 0.098	0.835 ± 0.045	0.877 ± 0.12	0.852 ± 0.18	1 ± 0.14	0.922 ± 0.17
